# Test results reported in patent US8329757B2, “Curcumin analog compositions and related methods” (Charlesson, LLC, priority 2008, dated 2012).
# Read-outs that look alike come from different tables or passages of the source.
# Legend:
# Assay type in all cases: cell-based
# [1] = system: Primary bovine retinal capillary endothelial cells (BRCECs); assay: MTT cell proliferation assay, BRCECs; conditions: 72 hours, mean±SD, n=3, read-out: IC50 (μM) BRCEC
# Procedure: (§1) Primary bovine retinal capillary endothelial cells (BRCECs), pericytes and human prostate adenocarcinoma cells (PC-3), and human breast cancer cells (MCF-7 and MDA-MB-231) were treated with the CLT010 compounds at various concentrations for 72 hours.
# [2] = system: TNF-α-stimulated generation of reactive oxygen species in human retinal pigment epithelial cells (ARPE-19); assay: TNF-α-stimulated intracellular ROS generation (CM-H2DCFDA fluorescence); conditions: for effect on ROS production: same concentration range (2-8 μM), same conditions; for reduction of ROS: 24 h pretreatment, TNF-α 20 ng/ml, ARPE-19, n=6
# Procedure: The intracellular generation of ROS was stimulated by TNF-α. Human retinal pigment epithelial cells (ARPE-19) were cultured on 96-well plates and pretreated with or without aminoguanidine, curcumin, and the CLT010 compounds for 24 h. TNF-α was added into culture medium at the concentration of 20 ng/ml and incubated with the cells for 1 h at 37° C. To measure ROS generation, 5-(and -6)-chloromethyl-2′,7′-dichlorodihydrofluorescein diacetate (CM-H2DCFDA) was added to the cells and incubated for 45 min. The relative fluorescence intensity representing the intracellular generation of ROS was measured using FLUOstar Omega at an emission wavelength of 535 nm, after excitation at 485 nm. TNF-α stimulated the intracellular generation of ROS by 36.9±8.4%, compounded with the untreated cells. Novel antioxidants reduced the intracellular ROS. At concentration of 8 μM, CLT010-01 reduced ROS by 40.5±6.3% (p<0.01, n=6), and CLT010-07 reduced ROS by 50.6±6.8% (p<0.01, n=6).
# According to embodiments of experimental data shown in FIG. 2, ARPE-19 cells were pretreated with aminoguanidine, curcumin, CLT010-01, CLT010-07, and CLT010-12 at indicated concentrations for 24 h prior to the addition of TNF-α (20 ng/ml). The cells were incubated with CM-H2DCFDA for 45 min. Relative fluorescent intensity in the untreated cells, TNF-α-stimulated cells and compound plus TNF-α-treated cells. In FIG. 2B, the percentage of relative fluorescent intensity in each compound plus TNF-α-treated cells compared with that of TNF-α-stimulated cells is shown as the compound plus TNF-α vs TNF-α alone: *p<0.05, p<0.01, n=6.
# [3] = system: human prostate adenocarcinoma cells (PC-3); assay: MTT cell proliferation assay, PC-3; conditions: 72 hours, mean±SD, n=3
# Procedure: as §1
# PC-3M = assay: MTT cell proliferation assay, PC-3M; conditions: 72 hours, mean±SD, n=3
# Procedure: [The source words this procedure for another cell line and reports this cell line under the same test.] as §1
# Du145 = assay: MTT cell proliferation assay, Du145; conditions: mean±SD, n=3
# Procedure: [The source words this procedure for another cell line and reports this cell line under the same test.] as §1
# [4] = system: human breast cancer cells (MCF-7); assay: MTT cell proliferation assay, MCF-7; conditions: mean±SD, n=3
# Procedure: as §1
# [5] = system: human breast cancer cells (MDA-MB-231); assay: MTT cell proliferation assay, MDA-MB-231; conditions: mean±SD, n=3
# Procedure: as §1
# pericytes = assay: MTT cell proliferation assay, pericytes; conditions: 72 hours
# Procedure: as §1
# [6] = system: VEGF in human retinal capillary endothelial cells (HRCECs); assay: CoCl2-induced VEGF over-expression, ELISA of conditioned medium; conditions: 24 h, CoCl2 200 μM; for reduction of VEGF levels: n=3
# Procedure: To address if new antioxidants block VEGF over-expression induced by hypoxia, we measured levels of VEGF in human retinal capillary endothelial cells (HRCECs) after the exposure of CLT010-01, CLT010-07, and CLT010-12. The effect of new oxidants was compared with curcumin. HRCECs were seeded at a density of 4×10^4 cells/well in 400 μl of growth medium in triplicate in gelatin-coated 24-well plates, 24 h prior to the experiments. VEGF over-expression was induced by 200 μM of cobalt chloride (CoCl2). Cells were incubated with the medium in the presence or absence of CoCl2 and CoCl2 plus curcumin, CLT010-01, CLT010-07 and CLT010-12 at the concentrations of 0.5, 2, and 4 μM. The conditioned medium was collected 24 h after treatment. VEGF concentrations were measured by ELISA specific for VEGF using a commercial kit (R & D Systems, Minneapolis, Minn.). CoCl2 induced VEGF over-expression by 53.1±13.9%, compared to the untreated cells. The novel antioxidants reduced the expression of VEGF (FIGS. 3A and 3B). CLT010-01 reduced the VEGF levels by 48.8±7.8% at 4 μM (p<0.001, n=3). CLT010-07 inhibited the VEGF levels by 45.2±8.5 (p<0.01, n=3) and 57.2±4.4% (p<0.001, n=3) at 2 and 4 μM, respectively. CLT010-12 suppressed the VEGF expression by 24.2±10 (p<0.01, n=3), 58.2±7.2 (p<0.001, n=3), and 67.3±4.4% (p<0.001, n=3) at 0.5, 2 and 4 μM (p<0.001, n=3), respectively (FIG. 3B).
# According to embodiments of experimental data shown in FIG. 3, HRCECs were cultured in the presence or absence of CoCl2, CoCl2 plus curcumin, CLT010-01, CLT010-07, and CLT010-12 at concentrations as indicated. The conditioned medium was collected after 24 h treatment. VEGF levels were measured by ELISA. In FIG. 3A, VEGF concentrations in the medium from the untreated cells, CoCl2-treated cells, and CoCl2 plus compound-treated cells are shown. In FIG. 3B, the percentage of VEGF concentrations in the medium from CoCl2 plus compound-treated cells compared with that of the medium from CoCl2-treated cells is shown. CoCl2 plus compounds plus vs. CoCl2: *p<0.01, p<0.001, n=3.
# cancer cells = assay: MTT cell proliferation assay, cancer cells (summary over lines); conditions: Homo sapiens, 72 hours, range across cancer cell lines, read-out: IC50, growth of cancer cells (range over cell lines)
# Procedure: as §1
IC50 [3] [µM],IC50 (PC-3M) [µM],IC50 (Du145; 72 hours) [µM],IC50 ([4]; 72 hours) [µM],IC50 ([5]; 72 hours) [µM],SMILES,"IC50 ([1]; Bos taurus, Endothelial cell) [µM]",effect on ROS production [2],inhibition of the growth of pericytes (pericytes),reduction of ROS ([2]; 8 μM) [%],reduction of VEGF levels ([6]; 4 μM) [%],IC50 [1] [µM],reduction of VEGF levels ([6]; 2 μM) [%],other results
,,,,,"N=C(N)NN [Aminoguanidine, reference compound]",> 32,did not significantly affect,,,,,,
15.8 ± 1.6,8.5 ± 0.5,25.9 ± 0.3,5.5 ± 1.2,3.1 ± 1.3,COc1cc(/C=C/C(=O)CC(=O)/C=C/c2ccc(OS(N)(=O)=O)c(OC)c2)ccc1OS(N)(=O)=O [CLT010-01],,,did not significantly inhibit,40.5±6.3,48.8±7.8,,,
1.8 ± 0.3,6.7 ± 0.7,5.3 ± 2.4,6.5 ± 0.1,6.2 ± 1.6,COc1cc(/C=C/c2cc(/C=C/c3ccc(OS(N)(=O)=O)c(OC)c3)[nH]n2)ccc1OS(N)(=O)=O [CLT010-07],,,did not significantly inhibit,50.6±6.8,57.2±4.4,3.9 ± 0.1,45.2±8.5,
1.9 ± 0.04,4.2 ± 0.1,6.3 ± 0.2,1.5 ± 0.1,0.6 ± 0.1,COc1cc(/C=C/C(=O)/C=C/c2cc(OC)c(OS(N)(=O)=O)c(OC)c2)cc(OC)c1OS(N)(=O)=O [CLT010-12],,,did not significantly inhibit,55.1±3.9,67.3±4.4,3.6 ± 0.2,58.2±7.2,reduction of ROS ([2]; 2 μM): 15.3±2.9%; reduction of ROS ([2]; 4 μM): 32.9±5.9%; reduction of VEGF levels ([6]; 0.5 μM): 24.2±10%
,,,,,COc1cc(/C=C/C(=O)CC(=O)/C=C/c2ccc(O)c(OC)c2)ccc1O [Curcumin],13.8,did not significantly affect,,,,,,"IC50 ([3]; Homo sapiens): 9.5 ± 1.6 µM; IC50 (PC-3M; Homo sapiens, PC-3M): 10.7 ± 1.3 µM; IC50 (Du145; Homo sapiens, DU-145, 72 hours): 20.7 ± 3.5 µM; IC50 ([4]; Homo sapiens, MCF7, 72 hours): 21.5 ± 4.7 µM; IC50 ([5]; Homo sapiens, MDA-MB-231, 72 hours): 25.6 ± 4.8 µM; IC50 (cancer cells): 9.5 to 25.6 µM; inhibition of the release of VEGF from cells into medium ([6]; 0.5, 2, and 4 μM, p>0.05, n=3): did not significantly inhibit"
